According to ChEMBL document CHEMBL5058643, “Data for DCP probe BI-2081” (2022):

Assays:
Conditions in all cases: Compound concentration 10.0 uM
[1] = molecular target: 5-hydroxytryptamine receptor 1D (Homo sapiens) (UniProt P28221)
[2] = molecular target: Sigma intracellular receptor 2 (Homo sapiens) (UniProt Q5BJF2)
[3] = molecular target: Histamine H4 receptor (Homo sapiens) (UniProt Q9H3N8)
[4] = molecular target: D(2) dopamine receptor (Homo sapiens) (UniProt P14416)
[5] = molecular target: T1, Alpha-1B adrenergic receptor (Homo sapiens) (UniProt P35368)
T1 sequence (whole entry): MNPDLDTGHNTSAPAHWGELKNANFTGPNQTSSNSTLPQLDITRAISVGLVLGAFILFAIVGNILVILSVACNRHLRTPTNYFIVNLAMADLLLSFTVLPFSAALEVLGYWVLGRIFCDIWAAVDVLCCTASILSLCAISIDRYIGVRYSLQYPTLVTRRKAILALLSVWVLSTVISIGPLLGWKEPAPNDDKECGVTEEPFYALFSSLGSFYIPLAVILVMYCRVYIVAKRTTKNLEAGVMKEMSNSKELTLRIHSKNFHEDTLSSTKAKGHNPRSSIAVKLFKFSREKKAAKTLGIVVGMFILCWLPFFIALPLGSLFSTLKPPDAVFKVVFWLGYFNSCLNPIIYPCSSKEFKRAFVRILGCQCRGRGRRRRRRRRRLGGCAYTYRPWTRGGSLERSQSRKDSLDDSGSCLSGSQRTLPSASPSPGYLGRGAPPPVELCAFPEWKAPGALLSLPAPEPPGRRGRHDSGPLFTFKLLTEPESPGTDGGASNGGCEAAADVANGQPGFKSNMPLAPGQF

[6] = molecular target: T2, Muscarinic acetylcholine receptor M1 (Homo sapiens) (UniProt P11229)
T2 sequence (whole entry): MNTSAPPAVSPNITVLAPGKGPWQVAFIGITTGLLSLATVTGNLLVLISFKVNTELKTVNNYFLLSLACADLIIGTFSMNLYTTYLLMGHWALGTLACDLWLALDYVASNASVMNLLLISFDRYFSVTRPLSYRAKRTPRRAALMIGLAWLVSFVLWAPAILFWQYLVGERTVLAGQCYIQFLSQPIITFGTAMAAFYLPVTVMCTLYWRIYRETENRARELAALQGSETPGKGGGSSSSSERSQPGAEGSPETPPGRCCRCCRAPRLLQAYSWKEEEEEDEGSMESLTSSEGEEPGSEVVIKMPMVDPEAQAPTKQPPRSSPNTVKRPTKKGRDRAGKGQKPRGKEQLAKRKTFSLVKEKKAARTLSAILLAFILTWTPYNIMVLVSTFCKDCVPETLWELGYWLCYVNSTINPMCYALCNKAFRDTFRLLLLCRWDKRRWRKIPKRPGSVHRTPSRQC

[7] = molecular target: 5-hydroxytryptamine receptor 2A (Homo sapiens) (UniProt P28223)
Chain of 5-hydroxytryptamine receptor 2A (Homo sapiens) (P28223 whole entry): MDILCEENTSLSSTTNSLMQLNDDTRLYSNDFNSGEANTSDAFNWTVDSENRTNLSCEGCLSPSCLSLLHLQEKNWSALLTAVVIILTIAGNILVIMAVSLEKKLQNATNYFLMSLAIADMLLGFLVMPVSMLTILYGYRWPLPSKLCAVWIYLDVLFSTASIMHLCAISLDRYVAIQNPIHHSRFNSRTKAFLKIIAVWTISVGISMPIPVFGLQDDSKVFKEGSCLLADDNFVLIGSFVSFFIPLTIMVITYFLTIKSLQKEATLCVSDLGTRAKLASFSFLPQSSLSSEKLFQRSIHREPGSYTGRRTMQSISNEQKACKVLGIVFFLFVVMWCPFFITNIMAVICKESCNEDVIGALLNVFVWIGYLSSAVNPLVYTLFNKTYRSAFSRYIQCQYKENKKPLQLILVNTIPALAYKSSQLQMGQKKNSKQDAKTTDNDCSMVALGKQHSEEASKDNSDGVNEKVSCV

[8] = molecular target: Muscarinic acetylcholine receptor M5 (Homo sapiens) (UniProt P08912)
[9] = molecular target: Beta-3 adrenergic receptor (Homo sapiens) (UniProt P13945)
Chain of Beta-3 adrenergic receptor (Homo sapiens) (P13945 whole entry, looked up): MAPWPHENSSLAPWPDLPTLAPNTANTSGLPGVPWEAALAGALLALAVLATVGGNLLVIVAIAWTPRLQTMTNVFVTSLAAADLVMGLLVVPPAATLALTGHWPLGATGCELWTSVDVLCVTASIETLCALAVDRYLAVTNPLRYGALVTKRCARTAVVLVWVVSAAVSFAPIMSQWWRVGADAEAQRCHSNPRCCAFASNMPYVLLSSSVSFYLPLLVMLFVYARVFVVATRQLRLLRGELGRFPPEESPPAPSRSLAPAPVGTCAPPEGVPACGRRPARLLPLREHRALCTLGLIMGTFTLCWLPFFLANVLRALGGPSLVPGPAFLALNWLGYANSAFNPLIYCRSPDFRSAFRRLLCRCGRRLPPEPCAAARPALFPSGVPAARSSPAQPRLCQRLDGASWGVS

[10] = molecular target: GABA-A receptor; anion channel (Rattus norvegicus) (UniProt O09028+P15431+P18506+P18508+P19969+P20236+P23574+P23576+P28471+P28473+P30191+P62813+P63079+P63138+Q91ZM7+Q9ES14)
[11] = molecular target: Kappa-type opioid receptor (Homo sapiens) (UniProt P41145)
[12] = molecular target: 5-hydroxytryptamine receptor 1B (Homo sapiens) (UniProt P28222)
[13] = molecular target: Cholecystokinin receptor type A (Homo sapiens) (UniProt P32238); experiment: CCKA/H Eurofins SafetyScreen44 (BI)
[14] = molecular target: Sigma non-opioid intracellular receptor 1 (Homo sapiens) (UniProt Q99720)
Chain of Sigma non-opioid intracellular receptor 1 (Homo sapiens) (Q99720 whole entry): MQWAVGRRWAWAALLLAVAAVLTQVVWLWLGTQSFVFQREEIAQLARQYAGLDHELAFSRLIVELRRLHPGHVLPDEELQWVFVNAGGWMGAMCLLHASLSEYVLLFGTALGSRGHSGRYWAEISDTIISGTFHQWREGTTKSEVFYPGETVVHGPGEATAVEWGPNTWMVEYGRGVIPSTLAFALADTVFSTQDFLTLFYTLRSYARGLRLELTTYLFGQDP

[15] = molecular target: D(1A) dopamine receptor (Homo sapiens) (UniProt P21728)
Chain of D(1A) dopamine receptor (Homo sapiens) (P21728 whole entry): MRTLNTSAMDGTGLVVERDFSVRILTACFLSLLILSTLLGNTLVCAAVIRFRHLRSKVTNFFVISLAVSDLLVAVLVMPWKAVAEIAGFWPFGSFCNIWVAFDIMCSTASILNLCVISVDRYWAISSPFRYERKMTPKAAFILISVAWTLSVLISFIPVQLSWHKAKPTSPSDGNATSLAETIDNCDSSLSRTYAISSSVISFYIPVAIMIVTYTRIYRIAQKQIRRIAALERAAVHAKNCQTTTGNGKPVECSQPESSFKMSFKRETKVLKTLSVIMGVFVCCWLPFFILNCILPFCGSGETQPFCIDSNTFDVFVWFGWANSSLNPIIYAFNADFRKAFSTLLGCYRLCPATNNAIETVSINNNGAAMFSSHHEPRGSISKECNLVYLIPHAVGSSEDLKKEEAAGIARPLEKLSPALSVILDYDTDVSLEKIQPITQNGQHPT

[16] = molecular target: Sodium-dependent dopamine transporter (Homo sapiens) (UniProt Q01959)
Chain of Sodium-dependent dopamine transporter (Homo sapiens) (Q01959 whole entry): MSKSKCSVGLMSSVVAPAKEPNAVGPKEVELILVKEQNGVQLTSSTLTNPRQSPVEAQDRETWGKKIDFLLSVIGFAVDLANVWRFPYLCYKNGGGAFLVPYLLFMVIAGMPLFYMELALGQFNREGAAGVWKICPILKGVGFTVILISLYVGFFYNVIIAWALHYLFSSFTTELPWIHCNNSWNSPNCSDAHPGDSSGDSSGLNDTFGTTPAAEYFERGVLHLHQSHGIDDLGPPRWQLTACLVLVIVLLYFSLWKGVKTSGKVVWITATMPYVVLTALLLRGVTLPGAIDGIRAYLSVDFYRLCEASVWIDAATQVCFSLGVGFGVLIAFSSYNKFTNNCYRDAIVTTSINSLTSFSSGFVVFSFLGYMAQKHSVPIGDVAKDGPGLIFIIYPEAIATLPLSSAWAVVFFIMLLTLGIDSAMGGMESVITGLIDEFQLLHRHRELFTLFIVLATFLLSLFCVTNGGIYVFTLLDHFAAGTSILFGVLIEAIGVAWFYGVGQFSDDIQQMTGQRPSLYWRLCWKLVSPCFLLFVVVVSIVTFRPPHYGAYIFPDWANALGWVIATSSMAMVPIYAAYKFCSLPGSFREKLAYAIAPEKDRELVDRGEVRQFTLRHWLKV

[17] = molecular target: Histamine H3 receptor (Homo sapiens) (UniProt Q9Y5N1)
Chain of Histamine H3 receptor (Homo sapiens) (Q9Y5N1 whole entry): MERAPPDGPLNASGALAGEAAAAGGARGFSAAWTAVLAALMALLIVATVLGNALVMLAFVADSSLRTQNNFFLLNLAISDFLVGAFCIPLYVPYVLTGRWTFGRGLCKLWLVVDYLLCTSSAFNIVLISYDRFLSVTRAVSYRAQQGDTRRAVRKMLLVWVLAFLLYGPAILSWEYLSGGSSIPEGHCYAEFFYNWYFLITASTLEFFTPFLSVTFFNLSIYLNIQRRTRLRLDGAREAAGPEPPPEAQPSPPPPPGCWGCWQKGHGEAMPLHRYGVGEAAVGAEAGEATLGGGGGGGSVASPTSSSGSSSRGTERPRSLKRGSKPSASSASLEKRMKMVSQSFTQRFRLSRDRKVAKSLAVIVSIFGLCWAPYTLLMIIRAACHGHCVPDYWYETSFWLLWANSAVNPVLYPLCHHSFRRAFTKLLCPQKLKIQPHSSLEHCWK

[18] = molecular target: T3, Muscarinic acetylcholine receptor M2 (Homo sapiens) (UniProt P08172)
T3 sequence (whole entry): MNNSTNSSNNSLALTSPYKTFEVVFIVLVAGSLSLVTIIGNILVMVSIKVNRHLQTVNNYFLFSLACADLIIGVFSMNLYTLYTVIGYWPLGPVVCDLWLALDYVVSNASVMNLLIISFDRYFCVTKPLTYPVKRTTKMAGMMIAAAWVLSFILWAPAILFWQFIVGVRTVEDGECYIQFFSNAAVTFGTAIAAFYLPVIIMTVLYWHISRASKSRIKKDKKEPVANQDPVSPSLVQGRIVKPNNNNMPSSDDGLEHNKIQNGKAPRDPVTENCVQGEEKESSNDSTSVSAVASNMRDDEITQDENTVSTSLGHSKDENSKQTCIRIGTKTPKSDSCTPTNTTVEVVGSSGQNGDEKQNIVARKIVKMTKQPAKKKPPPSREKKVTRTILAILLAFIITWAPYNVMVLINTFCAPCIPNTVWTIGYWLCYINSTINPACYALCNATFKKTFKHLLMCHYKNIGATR

[19] = molecular target: D(3) dopamine receptor (Homo sapiens) (UniProt P35462)
Chain of D(3) dopamine receptor (Homo sapiens) (P35462 whole entry): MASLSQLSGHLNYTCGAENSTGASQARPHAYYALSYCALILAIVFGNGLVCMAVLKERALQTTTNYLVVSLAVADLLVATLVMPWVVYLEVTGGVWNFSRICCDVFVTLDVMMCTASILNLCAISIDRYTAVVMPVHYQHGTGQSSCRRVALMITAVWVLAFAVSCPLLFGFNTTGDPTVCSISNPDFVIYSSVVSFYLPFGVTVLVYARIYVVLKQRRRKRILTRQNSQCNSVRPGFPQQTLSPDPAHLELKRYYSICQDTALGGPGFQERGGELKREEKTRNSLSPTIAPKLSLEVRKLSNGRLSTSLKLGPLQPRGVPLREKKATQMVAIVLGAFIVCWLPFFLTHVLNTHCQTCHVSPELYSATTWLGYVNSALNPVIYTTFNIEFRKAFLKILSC

[20] = molecular target: 5-hydroxytryptamine receptor 2C (Homo sapiens) (UniProt P28335)
Chain of 5-hydroxytryptamine receptor 2C (Homo sapiens) (P28335 whole entry): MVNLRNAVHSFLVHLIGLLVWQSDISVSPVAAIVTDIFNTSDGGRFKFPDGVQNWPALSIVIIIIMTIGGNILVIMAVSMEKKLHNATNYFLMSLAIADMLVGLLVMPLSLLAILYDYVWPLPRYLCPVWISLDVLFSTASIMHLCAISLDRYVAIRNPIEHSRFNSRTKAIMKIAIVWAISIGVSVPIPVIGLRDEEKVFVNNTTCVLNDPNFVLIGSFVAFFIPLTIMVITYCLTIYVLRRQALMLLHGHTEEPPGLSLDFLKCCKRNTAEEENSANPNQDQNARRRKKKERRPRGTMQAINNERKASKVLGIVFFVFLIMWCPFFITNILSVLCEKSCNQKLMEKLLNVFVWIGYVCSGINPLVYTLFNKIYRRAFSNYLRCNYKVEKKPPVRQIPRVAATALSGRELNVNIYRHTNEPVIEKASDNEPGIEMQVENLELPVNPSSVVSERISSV

[21] = molecular target: Delta-type opioid receptor (Homo sapiens) (UniProt P41143)
[22] = molecular target: Histamine H1 receptor (Homo sapiens) (UniProt P35367)
Chain of Histamine H1 receptor (Homo sapiens) (P35367 whole entry): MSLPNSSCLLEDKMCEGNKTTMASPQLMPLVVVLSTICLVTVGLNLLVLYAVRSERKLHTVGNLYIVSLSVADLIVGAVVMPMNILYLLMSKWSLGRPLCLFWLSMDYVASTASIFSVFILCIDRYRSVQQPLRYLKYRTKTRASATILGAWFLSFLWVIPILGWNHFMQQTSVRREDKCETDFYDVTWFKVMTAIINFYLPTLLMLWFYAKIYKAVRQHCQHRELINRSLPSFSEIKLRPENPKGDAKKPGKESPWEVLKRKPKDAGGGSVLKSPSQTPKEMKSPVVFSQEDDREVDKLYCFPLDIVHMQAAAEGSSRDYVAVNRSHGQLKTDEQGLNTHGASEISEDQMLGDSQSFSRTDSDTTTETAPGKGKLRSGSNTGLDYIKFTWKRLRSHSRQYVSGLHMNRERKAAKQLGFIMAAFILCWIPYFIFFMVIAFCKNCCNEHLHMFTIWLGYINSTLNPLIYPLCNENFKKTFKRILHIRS

[23] = molecular target: Sodium-dependent noradrenaline transporter (Homo sapiens) (UniProt P23975)
[24] = molecular target: 5-hydroxytryptamine receptor 5A (Homo sapiens) (UniProt P47898)

Chain of 5-hydroxytryptamine receptor 1D (Homo sapiens) (P28221 whole entry): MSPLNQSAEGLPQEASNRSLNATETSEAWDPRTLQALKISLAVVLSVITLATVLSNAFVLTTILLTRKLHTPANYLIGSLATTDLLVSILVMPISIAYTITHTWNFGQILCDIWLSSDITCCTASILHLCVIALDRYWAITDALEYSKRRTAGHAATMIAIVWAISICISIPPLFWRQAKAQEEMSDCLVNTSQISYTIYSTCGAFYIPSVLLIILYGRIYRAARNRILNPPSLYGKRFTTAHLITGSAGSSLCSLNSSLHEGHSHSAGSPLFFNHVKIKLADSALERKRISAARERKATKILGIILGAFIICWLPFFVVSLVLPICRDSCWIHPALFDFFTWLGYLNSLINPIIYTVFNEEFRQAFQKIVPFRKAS
Chain of Histamine H4 receptor (Homo sapiens) (Q9H3N8 whole entry): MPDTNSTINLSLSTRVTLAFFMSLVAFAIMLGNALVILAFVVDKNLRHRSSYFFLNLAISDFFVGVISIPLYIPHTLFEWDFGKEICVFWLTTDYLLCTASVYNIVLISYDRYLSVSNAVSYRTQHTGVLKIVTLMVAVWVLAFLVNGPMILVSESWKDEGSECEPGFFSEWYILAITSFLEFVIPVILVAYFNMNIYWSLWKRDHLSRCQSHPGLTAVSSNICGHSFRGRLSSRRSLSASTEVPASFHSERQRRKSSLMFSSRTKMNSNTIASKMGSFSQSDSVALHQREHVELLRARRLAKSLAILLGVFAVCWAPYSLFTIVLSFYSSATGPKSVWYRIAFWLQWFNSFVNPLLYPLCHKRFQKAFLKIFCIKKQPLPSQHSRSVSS
Chain of Sigma intracellular receptor 2 (Homo sapiens) (Q5BJF2 whole entry): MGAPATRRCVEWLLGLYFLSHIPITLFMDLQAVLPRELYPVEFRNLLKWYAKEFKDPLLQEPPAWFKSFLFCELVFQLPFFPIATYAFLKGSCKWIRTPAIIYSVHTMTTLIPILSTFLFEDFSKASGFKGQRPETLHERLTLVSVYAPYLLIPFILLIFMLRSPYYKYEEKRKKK

Compound	inhibition [1]	inhibition [2]	inhibition [3]	inhibition [4]	inhibition [5]	inhibition [6]	inhibition [7]	inhibition [8]	inhibition [9]	inhibition [10]	inhibition [11]	inhibition [12]	residual activity [13]	inhibition [14]	inhibition [15]	inhibition [16]	inhibition [17]	inhibition [18]	inhibition [19]	inhibition [20]	further results
Cc1cc(OCCC(C)(C)O)cc(C)c1-c1ccc(F)c2c1CC[C@H]2Oc1ccc2c(c1)OC[C@H]2CC(=O)O	6.65%	13.1%	-5.97%	3.28%	-7.32%	-3.94%	-0.3%	-4.38%	20.2%	66.7%	8.37%	18.6%	103%	25.4%	0.05%	26.8%	9.84%	-3.23%	-6.42%	-4.94%	inhibition [21]: 24.4%; inhibition [22]: 10.3%; inhibition [23]: 9.38%; inhibition [24]: 5.48%
COCCCS(=O)(=O)c1cc(C)c(-c2ccc(F)c3c2CC[C@H]3Oc2ccc3c(c2)OC[C@H]3CC(=O)O)c(C)c1	-3.85%	-0.91%	-2.95%	8.15%	-4.9%	7.17%	-2.26%	-1.63%	11.6%	30.7%	20.6%	5.08%	82%	15.2%	-9.32%	1.43%	3%	-3.61%	20.4%	2.87%	inhibition [21]: 20.8%; inhibition [22]: -1.92%; inhibition [23]: 11.1%; inhibition [24]: 9.98%
